pEC50: −log10 of the molar value. Calls of active or inactive are those of the source. The rule behind the calls is not given here.
What was measured:
[1] = Toxicity in mouse allografted with mouse N202 tumor spheroids expressing H2B-GFP assessed as effect on tumor surrounding vasculature in the dorsal skin fold at 10 mg/kg, iv administered on day 13 as infusion for 5 mins measured on day 15; format: organism-based; settings: in vivo
HUVEC [2] = experiment: Induction of apoptosis in HUVEC assessed as disruption of nuclei; format: functional, cell-based; settings: Homo sapiens
[3] = Cytotoxicity against human MDA-MB-231 cells assessed as reduction in cell viability measured after 48 hrs by resazurin dye-based fluorometric analysis; format: functional; settings: MDA-MB-231, 48 h
Tubulin (Homo sapiens) [4] = biological target: T1, Tubulin (Homo sapiens) (UniProt P68371+Q9H4B7+P0DPH7+P68366+Q13509+Q71U36+P04350+Q3ZCM7+P07437+P68363+Q9BQE3+Q6PEY2+Q13885+Q9BVA1+Q9BUF5); experiment: Induction of microtubule instability in human MCF7 cells assessed as time spent for growth at IC50 for mitotic block measured after 20 hrs by immunofluorescence analysis; format: cell-based
Tubulin (Homo sapiens) [5] = biological target: T1, Tubulin (Homo sapiens); experiment: Induction of microtubule instability in human MCF7 cells assessed as rescue frequency at IC25 for mitotic block measured after 20 hrs by immunofluorescence analysis; format: cell-based
[6] = biological target: Tubulin alpha (Homo sapiens) (UniProt P0DPH7+P68366+Q71U36+P68363+Q9BQE3+Q6PEY2+A6NHL2+Q9NY65); experiment: Induction of alpha-tubulin depolymerization in HUVEC at 200 nM measured after 30 mins by DAPI staining based indirect immunofluorescence analysis; format: cell-based
[7] = Cytotoxicity against human HT-29 cells assessed as reduction in cell viability measured after 48 hrs by resazurin dye-based fluorometric analysis; format: functional; settings: Homo sapiens, HT-29, 48 h
HUVEC [8] = experiment: Induction of apoptosis in HUVEC assessed as cell membrane blebbing; format: functional, cell-based; settings: Homo sapiens
Tubulin (Homo sapiens) [9] = biological target: T1, Tubulin (Homo sapiens); experiment: Induction of microtubule depolymerization in HUVEC assessed as cell membrane blebbing at 2 uM measured after 30 mins; format: cell-based
Jurkat = experiment: Induction of apoptosis in human Jurkat cells assessed as caspase3 activation; format: functional, cell-based
[10] = Antifungal activity against Trichophyton rubrum isolate 1 measured after 48 hrs by broth dilution method; format: functional
Rattus norvegicus [11] = experiment: Reduction in blood flow in rat skin at 15 mg/kg, ip measured after 24 hrs by [125I]iodoantipyrine based method relative to vehicle control; format: ADME, organism-based; settings: in vivo
Rattus norvegicus [12] = experiment: Reduction in blood flow in rat kidney at 15 mg/kg, ip measured after 24 hrs by [125I]iodoantipyrine based method relative to vehicle control; format: ADME, organism-based; settings: in vivo
Tubulin (Homo sapiens) [13] = biological target: T1, Tubulin (Homo sapiens); experiment: Induction of microtubule instability in human MCF7 cells assessed as rescue frequency at IC50 for mitotic block measured after 20 hrs by immunofluorescence analysis; format: cell-based
Rattus norvegicus [14] = experiment: Effect on blood flow in rat brain at 15 mg/kg, ip measured after 1 hr by [125I]iodoantipyrine based method relative to vehicle control; format: ADME, organism-based; settings: in vivo

CC(C)(C)c1[nH]cnc1/C=c1\[nH]c(=O)/c(=C/c2ccccc2)[nH]c1=O [PLINABULIN]
Activity [1]: Non-Toxic
Activity (HUVEC [2]): Active
pEC50 [3]: 7.86
Activity (Tubulin (Homo sapiens) [4]): 33%
TIME (Tubulin (Homo sapiens) [4]): 0.005 h
Activity (Tubulin (Homo sapiens) [5]): 2.79 min⁻¹
Activity [6]: Active
pEC50 [7]: 7.32 to 8.01
Activity (HUVEC [8]): Active
Activity (Tubulin (Homo sapiens) [9]): Active
Activity (Jurkat): Dose-dependent effect
MIC [10]: > 16 µg/mL
Activity (Rattus norvegicus [11]): Toxic
Activity (Rattus norvegicus [12]): Toxic
Activity (Tubulin (Homo sapiens) [13]): 2.6 min⁻¹
Activity (Rattus norvegicus [14]): Non-Toxic
